Tested on: not listed separately
Experiment: DRUGMATRIX: ATPase, Na+/K+ enzyme inhibition (substrate: ATP)
Type: tissue-based, Sus scrofa, Heart
Settings: Not Active = under 50% inhibition at 10 µM

SMILES	IC50	Ki
O=NN(CCCl)C(=O)NCCCl [CARMUSTINE]	Not Active	Not Active
CC1=C(C(=O)O)N2C(=O)[C@@H](NC(=O)[C@H](N)c3ccccc3)[C@H]2SC1 [CEPHALEXIN ANHYDROUS]	Not Active	Not Active
O=C(N[C@H](CO)[C@H](O)c1ccc([N+](=O)[O-])cc1)C(Cl)Cl [CHLORAMPHENICOL]	Not Active	Not Active
ClC(Cl)Cl [CHLOROFORM]	Not Active	Not Active
C=C1CC[C@H](O)C/C1=C/C=C1\CCC[C@]2(C)[C@@H]([C@H](C)CCCC(C)C)CC[C@@H]12 [CHOLECALCIFEROL]	Not Active	Not Active
C[N+](C)(C)CCO.[Cl-] [CHOLINE CHLORIDE]	Not Active	Not Active
CCOC(=O)C(C)(C)Oc1ccc(Cl)cc1 [CLOFIBRATE]	Not Active	Not Active
CC(=O)OCC(=O)[C@@]1(O)CC[C@H]2[C@@H]3CCC4=CC(=O)CC[C@]4(C)[C@H]3C(=O)C[C@@]21C [CORTISONE ACETATE]	Not Active	Not Active
O=c1ccc2ccccc2o1 [COUMARIN]	Not Active	Not Active
C[C@@H]1C[C@@H]([C@H](O)CC2CC(=O)NC(=O)C2)C(=O)[C@@H](C)C1 [CYCLOHEXIMIDE]	Not Active	Not Active

Molecular target: 5-hydroxytryptamine receptor 4 (Cavia porcellus, UniProt O70528); note: in other assays of this panel Not Active means under 50% inhibition at 10 µM
Type: cell membranes, Dunkin-Hartley, Striatum, Membrane
Settings: not given

5-hydroxytryptamine receptor 4, sequence (O70528 whole entry): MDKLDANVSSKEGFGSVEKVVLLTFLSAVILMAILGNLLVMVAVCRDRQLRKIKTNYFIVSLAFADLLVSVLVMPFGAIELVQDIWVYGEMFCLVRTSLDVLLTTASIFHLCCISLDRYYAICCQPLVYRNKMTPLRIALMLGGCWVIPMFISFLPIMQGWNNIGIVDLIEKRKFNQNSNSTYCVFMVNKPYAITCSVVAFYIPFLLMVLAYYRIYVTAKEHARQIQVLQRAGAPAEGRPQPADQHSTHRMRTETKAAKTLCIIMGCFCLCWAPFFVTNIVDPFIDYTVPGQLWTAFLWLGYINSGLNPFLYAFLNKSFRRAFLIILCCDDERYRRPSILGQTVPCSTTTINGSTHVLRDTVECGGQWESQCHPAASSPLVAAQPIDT

SMILES	IC50
O=NN(CCCl)C(=O)NCCCl [CARMUSTINE]	Not Active
CC1=C(C(=O)O)N2C(=O)[C@@H](NC(=O)[C@H](N)c3ccccc3)[C@H]2SC1 [CEPHALEXIN ANHYDROUS]	Not Active
O=C(N[C@H](CO)[C@H](O)c1ccc([N+](=O)[O-])cc1)C(Cl)Cl [CHLORAMPHENICOL]	Not Active
ClC(Cl)Cl [CHLOROFORM]	Not Active
C=C1CC[C@H](O)C/C1=C/C=C1\CCC[C@]2(C)[C@@H]([C@H](C)CCCC(C)C)CC[C@@H]12 [CHOLECALCIFEROL]	Not Active
C[N+](C)(C)CCO.[Cl-] [CHOLINE CHLORIDE]	Not Active
CCOC(=O)C(C)(C)Oc1ccc(Cl)cc1 [CLOFIBRATE]	Not Active
CC(=O)OCC(=O)[C@@]1(O)CC[C@H]2[C@@H]3CCC4=CC(=O)CC[C@]4(C)[C@H]3C(=O)C[C@@]21C [CORTISONE ACETATE]	Not Active
O=c1ccc2ccccc2o1 [COUMARIN]	Not Active
C[C@@H]1C[C@@H]([C@H](O)CC2CC(=O)NC(=O)C2)C(=O)[C@@H](C)C1 [CYCLOHEXIMIDE]	Not Active

Molecular target: Beta-1 adrenergic receptor (Homo sapiens, UniProt P08588)
Experiment: DRUGMATRIX: Adrenergic beta1 radioligand binding (ligand: [125I] Cyanopindolol)
Type: cell membranes, CHO-K1, Membrane
Settings: cho-k1; Not Active = under 50% inhibition at 10 µM

Beta-1 adrenergic receptor, sequence (P08588 whole entry): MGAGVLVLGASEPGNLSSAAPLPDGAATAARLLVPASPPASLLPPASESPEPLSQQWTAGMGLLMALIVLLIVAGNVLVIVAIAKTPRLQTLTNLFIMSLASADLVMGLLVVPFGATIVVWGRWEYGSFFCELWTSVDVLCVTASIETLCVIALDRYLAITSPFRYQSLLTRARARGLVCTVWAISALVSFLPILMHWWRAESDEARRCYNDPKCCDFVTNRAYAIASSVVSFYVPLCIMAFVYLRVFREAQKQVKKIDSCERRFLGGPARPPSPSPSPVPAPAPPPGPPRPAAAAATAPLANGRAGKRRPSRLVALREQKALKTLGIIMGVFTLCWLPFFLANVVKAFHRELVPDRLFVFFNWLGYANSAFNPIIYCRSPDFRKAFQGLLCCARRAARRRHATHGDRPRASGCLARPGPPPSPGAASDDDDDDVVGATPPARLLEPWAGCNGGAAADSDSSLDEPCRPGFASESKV

SMILES	IC50
O=NN(CCCl)C(=O)NCCCl [CARMUSTINE]	Not Active
CC1=C(C(=O)O)N2C(=O)[C@@H](NC(=O)[C@H](N)c3ccccc3)[C@H]2SC1 [CEPHALEXIN ANHYDROUS]	Not Active
O=C(N[C@H](CO)[C@H](O)c1ccc([N+](=O)[O-])cc1)C(Cl)Cl [CHLORAMPHENICOL]	Not Active
ClC(Cl)Cl [CHLOROFORM]	Not Active
C=C1CC[C@H](O)C/C1=C/C=C1\CCC[C@]2(C)[C@@H]([C@H](C)CCCC(C)C)CC[C@@H]12 [CHOLECALCIFEROL]	Not Active
C[N+](C)(C)CCO.[Cl-] [CHOLINE CHLORIDE]	Not Active
CCOC(=O)C(C)(C)Oc1ccc(Cl)cc1 [CLOFIBRATE]	Not Active
CC(=O)OCC(=O)[C@@]1(O)CC[C@H]2[C@@H]3CCC4=CC(=O)CC[C@]4(C)[C@H]3C(=O)C[C@@]21C [CORTISONE ACETATE]	Not Active
O=c1ccc2ccccc2o1 [COUMARIN]	Not Active
C[C@@H]1C[C@@H]([C@H](O)CC2CC(=O)NC(=O)C2)C(=O)[C@@H](C)C1 [CYCLOHEXIMIDE]	Not Active

Molecular target: T1, Neuropeptide Y receptor type 1 (Homo sapiens, UniProt P25929); note: in other assays of this panel Not Active means under 50% inhibition at 10 µM
T1 sequence (P25929 whole entry): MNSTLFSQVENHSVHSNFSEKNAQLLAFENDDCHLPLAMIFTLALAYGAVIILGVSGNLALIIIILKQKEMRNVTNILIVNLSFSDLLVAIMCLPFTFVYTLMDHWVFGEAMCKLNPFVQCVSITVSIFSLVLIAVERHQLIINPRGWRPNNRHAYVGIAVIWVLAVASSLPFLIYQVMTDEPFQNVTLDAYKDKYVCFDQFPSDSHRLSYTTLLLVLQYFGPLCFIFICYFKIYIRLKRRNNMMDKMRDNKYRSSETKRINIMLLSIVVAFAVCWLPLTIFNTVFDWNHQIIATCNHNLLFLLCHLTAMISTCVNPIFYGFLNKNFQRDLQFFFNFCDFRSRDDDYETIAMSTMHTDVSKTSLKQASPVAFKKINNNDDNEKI
Type: cell membranes, Membrane
Settings: sk-n-mc

SMILES	IC50
O=NN(CCCl)C(=O)NCCCl [CARMUSTINE]	Not Active
CC1=C(C(=O)O)N2C(=O)[C@@H](NC(=O)[C@H](N)c3ccccc3)[C@H]2SC1 [CEPHALEXIN ANHYDROUS]	Not Active
O=C(N[C@H](CO)[C@H](O)c1ccc([N+](=O)[O-])cc1)C(Cl)Cl [CHLORAMPHENICOL]	Not Active
ClC(Cl)Cl [CHLOROFORM]	Not Active
C=C1CC[C@H](O)C/C1=C/C=C1\CCC[C@]2(C)[C@@H]([C@H](C)CCCC(C)C)CC[C@@H]12 [CHOLECALCIFEROL]	Not Active
C[N+](C)(C)CCO.[Cl-] [CHOLINE CHLORIDE]	Not Active
CCOC(=O)C(C)(C)Oc1ccc(Cl)cc1 [CLOFIBRATE]	Not Active
CC(=O)OCC(=O)[C@@]1(O)CC[C@H]2[C@@H]3CCC4=CC(=O)CC[C@]4(C)[C@H]3C(=O)C[C@@]21C [CORTISONE ACETATE]	Not Active
O=c1ccc2ccccc2o1 [COUMARIN]	Not Active
C[C@@H]1C[C@@H]([C@H](O)CC2CC(=O)NC(=O)C2)C(=O)[C@@H](C)C1 [CYCLOHEXIMIDE]	Not Active

Molecular target: Melanocortin receptor 5 (Homo sapiens, UniProt P33032); note: in other assays of this panel Not Active means under 50% inhibition at 10 µM
Type: cell membranes, Membrane
Settings: hek293

Melanocortin receptor 5, sequence (P33032 whole entry): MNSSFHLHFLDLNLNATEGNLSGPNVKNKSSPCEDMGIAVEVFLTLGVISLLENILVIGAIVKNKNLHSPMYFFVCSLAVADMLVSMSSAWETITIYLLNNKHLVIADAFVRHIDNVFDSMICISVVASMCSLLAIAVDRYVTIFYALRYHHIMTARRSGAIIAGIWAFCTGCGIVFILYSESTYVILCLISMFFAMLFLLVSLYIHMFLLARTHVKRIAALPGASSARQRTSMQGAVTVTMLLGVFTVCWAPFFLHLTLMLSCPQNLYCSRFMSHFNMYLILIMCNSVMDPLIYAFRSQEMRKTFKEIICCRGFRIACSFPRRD

SMILES	IC50
O=NN(CCCl)C(=O)NCCCl [CARMUSTINE]	Not Active
CC1=C(C(=O)O)N2C(=O)[C@@H](NC(=O)[C@H](N)c3ccccc3)[C@H]2SC1 [CEPHALEXIN ANHYDROUS]	Not Active
O=C(N[C@H](CO)[C@H](O)c1ccc([N+](=O)[O-])cc1)C(Cl)Cl [CHLORAMPHENICOL]	Not Active
ClC(Cl)Cl [CHLOROFORM]	Not Active
C=C1CC[C@H](O)C/C1=C/C=C1\CCC[C@]2(C)[C@@H]([C@H](C)CCCC(C)C)CC[C@@H]12 [CHOLECALCIFEROL]	Not Active
C[N+](C)(C)CCO.[Cl-] [CHOLINE CHLORIDE]	Not Active
CCOC(=O)C(C)(C)Oc1ccc(Cl)cc1 [CLOFIBRATE]	Not Active
CC(=O)OCC(=O)[C@@]1(O)CC[C@H]2[C@@H]3CCC4=CC(=O)CC[C@]4(C)[C@H]3C(=O)C[C@@]21C [CORTISONE ACETATE]	Not Active
O=c1ccc2ccccc2o1 [COUMARIN]	Not Active
C[C@@H]1C[C@@H]([C@H](O)CC2CC(=O)NC(=O)C2)C(=O)[C@@H](C)C1 [CYCLOHEXIMIDE]	Not Active

Molecular target: Tyrosine-protein kinase Lck (Homo sapiens, UniProt P06239)
Experiment: DRUGMATRIX: Protein Tyrosine Kinase, LCK enzyme inhibition (substrate: Poly(Glu:Tyr))
Type: cell-based, Insect cells
Settings: insect cells; Not Active = under 50% inhibition at 10 µM

Tyrosine-protein kinase Lck, sequence (P06239 whole entry): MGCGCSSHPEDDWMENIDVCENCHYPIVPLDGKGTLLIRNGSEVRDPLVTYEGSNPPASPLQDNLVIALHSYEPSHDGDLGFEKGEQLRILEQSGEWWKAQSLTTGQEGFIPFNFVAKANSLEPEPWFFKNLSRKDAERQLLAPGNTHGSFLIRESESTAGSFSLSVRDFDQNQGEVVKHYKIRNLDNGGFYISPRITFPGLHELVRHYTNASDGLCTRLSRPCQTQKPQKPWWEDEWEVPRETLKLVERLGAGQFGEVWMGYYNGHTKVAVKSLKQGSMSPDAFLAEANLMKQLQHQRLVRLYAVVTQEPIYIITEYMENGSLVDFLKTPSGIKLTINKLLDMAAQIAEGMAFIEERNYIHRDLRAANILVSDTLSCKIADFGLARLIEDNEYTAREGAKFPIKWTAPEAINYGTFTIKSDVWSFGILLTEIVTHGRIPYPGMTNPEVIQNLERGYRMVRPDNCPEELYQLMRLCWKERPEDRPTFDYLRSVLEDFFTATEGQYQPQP

SMILES	IC50
O=NN(CCCl)C(=O)NCCCl [CARMUSTINE]	Not Active
CC1=C(C(=O)O)N2C(=O)[C@@H](NC(=O)[C@H](N)c3ccccc3)[C@H]2SC1 [CEPHALEXIN ANHYDROUS]	Not Active
O=C(N[C@H](CO)[C@H](O)c1ccc([N+](=O)[O-])cc1)C(Cl)Cl [CHLORAMPHENICOL]	Not Active
ClC(Cl)Cl [CHLOROFORM]	Not Active
C=C1CC[C@H](O)C/C1=C/C=C1\CCC[C@]2(C)[C@@H]([C@H](C)CCCC(C)C)CC[C@@H]12 [CHOLECALCIFEROL]	Not Active
C[N+](C)(C)CCO.[Cl-] [CHOLINE CHLORIDE]	Not Active
CCOC(=O)C(C)(C)Oc1ccc(Cl)cc1 [CLOFIBRATE]	Not Active
CC(=O)OCC(=O)[C@@]1(O)CC[C@H]2[C@@H]3CCC4=CC(=O)CC[C@]4(C)[C@H]3C(=O)C[C@@]21C [CORTISONE ACETATE]	Not Active
O=c1ccc2ccccc2o1 [COUMARIN]	Not Active
C[C@@H]1C[C@@H]([C@H](O)CC2CC(=O)NC(=O)C2)C(=O)[C@@H](C)C1 [CYCLOHEXIMIDE]	Not Active

Molecular target: T2, Adenosine receptor A1 (Homo sapiens, UniProt P30542);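 note: radioligand binding assay at the adenosine A1 receptor, with DPCPX serving as the labelled ligand; in other assays of this panel Not Active means under 50% inhibition at 10 µM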
T2 sequence (P30542 whole entry): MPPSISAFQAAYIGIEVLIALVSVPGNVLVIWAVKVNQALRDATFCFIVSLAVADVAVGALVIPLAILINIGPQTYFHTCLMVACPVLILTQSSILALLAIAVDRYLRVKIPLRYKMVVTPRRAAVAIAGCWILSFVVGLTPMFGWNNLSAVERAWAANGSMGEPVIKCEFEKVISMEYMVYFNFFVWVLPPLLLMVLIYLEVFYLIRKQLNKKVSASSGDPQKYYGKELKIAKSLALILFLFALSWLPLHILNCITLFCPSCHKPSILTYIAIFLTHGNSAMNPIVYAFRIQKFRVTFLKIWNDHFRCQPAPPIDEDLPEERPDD
Type: cell membranes, Membrane
Settings: cho

SMILES	IC50
O=NN(CCCl)C(=O)NCCCl [CARMUSTINE]	Not Active
CC1=C(C(=O)O)N2C(=O)[C@@H](NC(=O)[C@H](N)c3ccccc3)[C@H]2SC1 [CEPHALEXIN ANHYDROUS]	Not Active
O=C(N[C@H](CO)[C@H](O)c1ccc([N+](=O)[O-])cc1)C(Cl)Cl [CHLORAMPHENICOL]	Not Active
ClC(Cl)Cl [CHLOROFORM]	Not Active
C=C1CC[C@H](O)C/C1=C/C=C1\CCC[C@]2(C)[C@@H]([C@H](C)CCCC(C)C)CC[C@@H]12 [CHOLECALCIFEROL]	Not Active
C[N+](C)(C)CCO.[Cl-] [CHOLINE CHLORIDE]	Not Active
CCOC(=O)C(C)(C)Oc1ccc(Cl)cc1 [CLOFIBRATE]	Not Active
CC(=O)OCC(=O)[C@@]1(O)CC[C@H]2[C@@H]3CCC4=CC(=O)CC[C@]4(C)[C@H]3C(=O)C[C@@]21C [CORTISONE ACETATE]	Not Active
O=c1ccc2ccccc2o1 [COUMARIN]	Not Active
C[C@@H]1C[C@@H]([C@H](O)CC2CC(=O)NC(=O)C2)C(=O)[C@@H](C)C1 [CYCLOHEXIMIDE]	Not Active

Reference: ChEMBL document CHEMBL1909046, “DrugMatrix in vitro pharmacology data”
